In patent publication US20240226342A1, “REACTIVE OXYGEN SPECIES IMAGING AGENTS” (Washington University, priority 2022, published 2024):

Legend:
[1] = Metabolite analysis after incubation in human serum or plasma (QC radio-HPLC); assay type: in vitro ADME; details: 37° C., upto 1 h
Source text: Oxidative imbalance and functional impairment of mitochondria may mediate pathogenesis of neurodegenerative diseases and mitochondria are among the prominent intracellular site for ROS generation. Thus, a 2nd generation redox-sensitive neuroROS tracer was designed (also identified as either as SLN 128 or 12 (noncarrier added) or ^18F-13 (PET tracer); see e.g., FIG. 2) for the detection of total ROS within cells undergoing pro-oxidative stage. While the unlabeled/noncarrier counterpart of the probe 12 was synthesized and characterized through standard analytical methods (Proton NMR, proton-decoupled 13C-NMR, HRMS, Elemental analysis), the carrier added ^18F-13 (Lab ID:18F-SLN128) was synthesized through a reaction between the tosylated precursor 11 and KF{18F}-/Kryptofix 222 and followed by deprotection of methoxymethyl ether 11 in situ with TFA as shown (see e.g., FIG. 2), purified on semipreparatory C-18 column, the desired fraction with a Rt=12 min was collected, concentrated, reconstituted in 5% ethanol/95%sterile saline and analyzed for purity on QC radio-HPLC (radiochemical yield: 15-20%; radiochemical purity >99%; specific activity:1400-1700 Ci/mmole) and identified by spiking with the noncarrier added/unlabeled counterpart. […] For analysis of metabolites, ^18F-SLN-128 was incubated with either human serum or plasma at 37° C. as a function of time and analyzed on QC Radio-HPLC.

[2] = tested on: LPS induced systemic inflammation of mouse brain; assay: Dynamic PET/CT imaging in LPS-treated mice; assay type: in vivo; details: for brain uptake in LPS-treated mice relative to saline-treated mice: 24 h post LPS, frames 45-60 min
Procedure: FIG. 9A-FIG. 9D is an exemplary embodiment showing preclinical PET/CT imaging in accordance with the present disclosure. C57BI6 mice (n=4) were injected with either LPS or saline intraperitoneally. 24 h post treatments, 18F-SLN-128 (100 μCi) was injected via tail-vein into mice. Dynamic PET images were acquired from 0 min to 60 min post tail-vein injection of the radiotracer. PET/CT images as shown are a summation frames from 45-60 min. FIG. 9A is an image showing saline treated mice (control). FIG. 9B is an image showing LPS treated mice (5 μg/g, 24 h post treatment); FIG. 9C is a bar graph showing quantified uptake: % ID/cm3. FIG. 9D is a bar graph showing post imaging biodistribution: Brain Uptake (% ID/g). mean±SD, where **p<0.01 and […] is determined by an unpaired student ttest) in brains of BI6 mice (n=4) 24 h post either LPS- or saline treatments.
Systemic administration of LPS induces oxidative stress and resulting a release of inflammatory cytokines, sustained microglial activation, and neuronal cell loss in brain areas, such as the hippocampus, cerebral cortex, substantia nigra, ventral tegmental area, and thalamus, alters the levels of neurotransmitters in adult animals, and cerebellum. Thus LPS-induced inflammation provides a useful rodent model for preclinical imaging of ^18F-SLN-128. […] Finally, the brain uptake (see e.g., FIG. 9C) derived from PET imaging also correlated with 60 min post imaging quantified uptake (see e.g., FIG. 9D) indicating potential of the radiotracer for imaging endotoxin mediated brain inflammation in vivo. Mitochondrial dysfunction is a major event in the pathogenesis of Huntington disease (HD). It has also been reported that systemic 3-NP administration leads to oxidized proteins in the striatum, as well as a massive loss of striatal neurons. To evaluate potential of ^18F-SLN-128 PET imaging for 3NP-induced ROS-mediated neurodegeneration in mice, PET/CT imaging was performed.

[3] = Dynamic PET/MR brain imaging of normal rhesus monkey; assay type: in vivo
Procedure: FIG. 12A-FIG. 12B is an exemplary embodiment showing dynamic MR/PET brain imaging of normal rhesus monkey (10 Kg) following intravenous injection of 18F-SLN-128 (5.8 mCi) over 2 h in accordance with the present disclosure. FIG. 12A includes images showing summation of PET data over 10 min and co-registered with T2-weighted MR image of the monkey for anatomical reference. FIG. 12B is a line graph showing SUVs as a time-activity curve for the tracer influx and clearance from important regions of the brain.
Of note, these NHP brain SUV values are 2.5-fold higher than reported for ^18F-ROStrace thus likely to translate into higher contrast brain images compared with ^18F-ROStrace (SUV=1.35). […] Tissue time-activity curves (TACs) also show fast initial uptake with maximum projection of activity at 7-10 min followed by clearance of ^18F-SLN-128 at later time-points from amygdala, caudate, cerebellum, cortex (frontal, insular, occipital and temporal), cerebellum, hippocampus, putamen, thalamus, and white matter of rhesus monkey brain.

COc1ccc2c(c1)N(C)C(c1ccc(O)c(OCC[18F])c1)c1cccn1-2 (stereo not shown) [18F-SLN-128]
metabolic stability in human serum [1]: remains non-metabolized | brain uptake in LPS-treated mice relative to saline-treated mice [2]: 2.5 fold | brain uptake in LPS-treated mice relative to saline-treated mice ([2]; listed as 18F-SLN128): 2 fold | retention in brains of LPS treated mice ([2]; compared with saline-treated counterparts): stable retention in brains of LPS treated mice | clearance from brain regions ([3]; later time points): excreted from critical regions at later-time points | nonspecific retention in normal monkey brain ([3]; over 2 h): Insignificant nonspecific retention | time of maximum SUV ([3]; rhesus monkey): 7 to 10 min | NHP brain SUV relative to 18F-ROStrace ([3]; rhesus monkey, in vivo): 2.5 fold | maximum Standard Uptake Value (SUV) in brain ([3]; rhesus monkey, intravenous injection): 3.5 | metabolites in venous blood (radio-HPLC, γ-counter) ([3]; samples at an interval of 3 min over 2 hours): did not show any metabolite
